Values quoted from earlier work as cited in patent US20260283943A1, “STARCHLESS MOLDING PROCESS FOR ORAL PRODUCTS” (NICOVENTURES TRADING LIMITED, priority 2023, published 2026).

Key:
[1] = isolated substance

Compound	Solubility in water	Chemical stability [1]
C=C(C)[C@@H]1CCC(C)=C[C@H]1c1c(O)cc(CCCCC)cc1O [CBD, cannabidiol, reference compound]	insoluble in an aqueous environment	
COC(=O)/C=C/C(C)=C\C=C\C(C)=C\C=C\C=C(C)\C=C\C=C(C)\C=C\C(=O)O [bixin, (2E,4E,6E,8E,10E,12E,14E,16Z,18E)-20-methoxy-4,8,13,17-tetramethyl-20-oxoicosa-2,4,6,8,10,12,14,16,18-nonaenoic acid]	insoluble in water	chemically unstable when isolated
